Test results from patent US20110105496A1, “Methods For The Treatment Of Myosin Heavy Chain-Mediated Conditions Using 4,7-Dihydrothieno[2,3-B]Pyridine Compounds” (priority 2005, published 2011).
Like-named read-outs stand apart in the source and are kept apart here.

System: alpha-MyHC
Test: alpha-MyHC cytoblot process in neonatal rat ventricular myocytes (NRVM)
Assay type: cell-based
Method: In vitro activity of each compound is measured using the alpha-MyHC cytoblot process. Briefly, neonatal rat ventricular myocytes (NRVM) at 120,000 cells/ml in HyQ DME/High modified culture media supplemented with 10% charcoal/dextran treated FBS, 0.1% Nutridoma-SP, 1:100 MEM non-essential amino acids, 1:50 MEM amino acids solution w/o L-Gln, 1 mM sodium pyruvate and 1:100 P/S/G, are plated on gelatin coated sterile 384-well plates (Costar 3712) at 6,000 cells per well. Cells are incubated overnight at 37° C. in 5% CO2 100% humidity. Following overnight growth the media is changed to HyQ DME/High modified culture media supplemented with 0.3% Nutridoma-SP, 1:100 MEM non-essential amino acids, 1:50 MEM amino acids solution w/o L-Gln, 1 mM sodium pyruvate and 1:100 P/S/G. Cells are then dosed with serial dilutions of each compound in DMSO. Each concentration in the dose range is dosed in quadruplicate. Dosing is done in such a way so that the final DMSO concentration was 0.44%. Compound dilutions are 3-fold with the final top concentration of 10 uM. […] Following dosing, the cells are incubated for 72 hours at 37° C. in 5% CO2 100% humidity and then processed with the cytoblot method. Briefly, cell media is aspirated and cell monolayers washed with PBS and fixed with 100% methanol for 30 minutes. Fixed cells are then blocked with PBS, 0.05% Tween-20, 1% BSA, for 1 hour. Following blocking, cells are incubated with primary alpha-MyHC-specific antibody antibody (1:30 dilution of BA-G5 hybridoma conditioned media, ATCC HB276) for 1 hour. Following incubation with the primary antibody, cells are washed with PBS, 0.05% Tween-20, 1% BSA and incubated with secondary antibody (1:1000 dilution, goat-anti-mouse HRP, Southern Biotech, 1031-05) for 1 hour. Following incubation with the secondary antibody, wells are washed and incubated in SuperSignal, West Dura HRP-luminescence substrate for 30 seconds under shaking at room temperature. Luminescence is measured using a Packard Fusion plate reader. […] RLU values are converted into per cent fraction of low control and dose responses are fitted to a sigmoidal 4-parameter equation (XLFit, IDBS) where the EC50 and Max Plateau values were extracted. […] Max Plateau is the […] maximum value determined by the dose response fit.

[1] = Table 1, NRVM, 72 hours, alpha-MyHC cytoblot, mean ± spread
[2] = Table 1, NRVM, 72 hours, maximum of dose response fit, low control = vehicle only
[3] = Table 2 (esters), NRVM, 72 hours, alpha-MyHC cytoblot
[4] = Table 2 (esters), NRVM, 72 hours, maximum of dose response fit

Row | Structure (SMILES) | EC50 [3] [µM] | Max Plateau [2] | Max Plateau [4] | further results
1 | CC(=O)C1=C(C)Nc2sc(C(=O)c3ccccc3)c(N)c2C1c1ccccc1F (stereo not drawn) [Compound 24] | – | 260.35 ± 43.53 per cent fraction of low control | – | EC50 [1]: 0.273 µM
2 | CCC(=O)C1=C(CC)Nc2sc(C(=O)c3ccc(F)c(F)c3)c(N)c2C1c1ccccc1 (stereo not drawn) [Compound 72] | – | 223.99 ± 24.51 per cent fraction of low control | – | EC50 [1]: 0.00923 µM
3 | N[C@@H](Cc1cc(I)c(Oc2ccc(O)c(I)c2)c(I)c1)C(=O)O [Compound T3, 3,5,3′-triiodo-L-thyronine, reference compound] | – | – | – | Relative Light Unit (RLU) values (high control, 3 nM T3, low control (vehicle only) 2,000-3,000): 8,000-10,000 RLU
4 | CC(=O)C1=C(C)Nc2sc(C(=O)c3ccc(Cl)c(Cl)c3)c(N)c2C1c1ccc(C(C)(C)C)cc1 (stereo not drawn) [Compound 32] | – | 100.00 ± 0.00 per cent fraction of low control | – | –
5 | CC(=O)C1=C(C)Nc2sc(C(=O)c3ccc(Cl)c(Cl)c3)c(N)c2C1c1cccs1 (stereo not drawn) [Compound 41] | – | 178.47 ± 7.82 per cent fraction of low control | – | EC50 [1]: 0.369 µM
6 | CCC1=C(C(=O)OCCNC(=O)OC(C)(C)C)C(c2ccccc2F)c2c(sc(C(=O)c3ccc(Cl)c(Cl)c3)c2N)N1 (stereo not drawn) [Compound 222, Bac protected 3-amino-2-(3,4 dichloro-benzoyl)-4-(2 fluoro-phenyl)-6-methyl-4,7 dihydro-thieno[2,3-b]pyridine-5-carboxylic acid 2-amino-ethyl ester] | – | – | – | EC50: 0.0943 µM; Max Plateau: 128.75 ± 8.38
7 | CC(=O)C1=C(C)Nc2sc(C(=O)c3cccc([N+](=O)[O-])c3)c(N)c2C1c1ccccc1Cl (stereo not drawn) [Compound 4, 1-[3-amino-4-(2-chloro-phenyl)-6-methyl-2-(3-nitro-benzoyl)-4,7dihydro-thieno[2,3-b]pyridin-5-yl]-ethanone] | – | 244.20 ± 37.25 per cent fraction of low control | – | –
8 | CCC(=O)C1=C(CC)Nc2sc(C(=O)c3ccc(Cl)cc3)c(N)c2C1c1ccccc1 (stereo not drawn) [Compound 80] | – | 226.13 ± 5.25 per cent fraction of low control | – | EC50 [1]: 0.103 µM
9 | CC(=O)C1=C(C)Nc2sc(C(=O)c3ccc(Cl)c(Cl)c3)c(N)c2C1c1ccc(C(F)(F)F)cc1 (stereo not drawn) [Compound 48] | – | 190.81 ± 37.09 per cent fraction of low control | – | EC50 [1]: 5.11 µM
10 | CC1=C(C(=O)OCCNC(=O)OC(C)(C)C)C(c2ccccc2F)c2c(sc(C(=O)c3ccc(Cl)c(Cl)c3)c2N)N1 (stereo not drawn) [compound 223] | – | – | – | EC50: 0.0108 µM; Max Plateau: 213.11 ± 12.55
11 | CCC(=O)C1=C(CC)Nc2sc(C(=O)c3ccc(Cl)c(Cl)c3)c(N)c2C1c1ccccc1[N+](=O)[O-] (stereo not drawn) [Compound 59] | – | 152.77 ± 11.42 per cent fraction of low control | – | EC50 [1]: 0.425 µM
12 | CCC(=O)C1=C(CC)Nc2sc(C(=O)c3ccc(Cl)c(Cl)c3)c(N)c2C1c1ccccc1F (racemic) [Compound 39, 1-[3-amino-2-(3,4-dichloro-benzoyl)-6-ethyl-4-(2-fluoro-phenyl)-4,7-dihydro-thieno[2,3b]pyridin-5-yl]-propan-1-one] | – | – | – | EC50 (Rattus norvegicus, Ventricular myocyte, Table 1, NRVM, 72 hours, alpha-MyHC cytoblot, mean ± spread): 0.0171 µM; Emax (Rattus norvegicus, Ventricular myocyte, Table 1, NRVM, 72 hours, maximum of dose response fit, low control = vehicle only, read-out: Max Plateau): 273 ± 37.3%
13 | COC(=O)C1=C(C(C)C)Nc2sc(C(=O)c3ccc(Cl)c(Cl)c3)c(N)c2C1c1cccc([N+](=O)[O-])c1 (stereo not drawn) [Compound 134] | – | – | 98.33 per cent fraction of low control | –
14 | CCC(=O)C1=C(CC)Nc2sc(C(=O)c3cc(C(F)(F)F)cc(C(F)(F)F)c3)c(N)c2C1c1ccccc1 (stereo not drawn) [Compound 73] | – | 205.27 ± 38.78 per cent fraction of low control | – | EC50 [1]: 0.00892 µM
15 | COc1cccc(C2C(C(C)=O)=C(C)Nc3sc(C(=O)c4ccccc4)c(N)c32)c1 (stereo not drawn) [Compound 15] | – | 126.50 ± 24.27 per cent fraction of low control | – | –
16 | CC(=O)C1=C(C)Nc2sc(C(=O)c3ccccc3)c(N)c2C1c1ccc(Cl)cc1 (stereo not drawn) [Compound 21] | – | 193.20 ± 49.26 per cent fraction of low control | – | EC50 [1]: 0.583 µM
17 | CC(=O)C1=C(C)Nc2sc(C(=O)c3ccc(Cl)c(Cl)c3)c(N)c2C1c1cc(Cl)cc(Cl)c1 (stereo not drawn) [Compound 33] | – | 143.15 ± 21.22 per cent fraction of low control | – | EC50 [1]: 1.95 µM
18 | CC(=O)C1=C(C)Nc2sc(C(=O)c3ccc(Cl)c(Cl)c3)c(N)c2C1c1cccc2c1OCO2 (stereo not drawn) [Compound 31] | – | 121.08 ± 18.32 per cent fraction of low control | – | –
19 | COCCOCN1C(C)=C(C(C)=O)C(c2ccccc2)c2c1sc(C(=O)c1ccccc1)c2N (racemic) [Compound 209] | – | – | – | EC50 (Table 5 (R^4 substituted), NRVM, 72 hours, alpha-MyHC cytoblot): 0.393 µM; Max Plateau (Table 5 (R^4 substituted), NRVM, 72 hours, maximum of dose response fit): 192.74 per cent fraction of low control
20 | CCNC(=O)C1=C(C)Nc2sc(C(=O)c3ccc(Cl)c(Cl)c3)c(N)c2C1c1ccccc1 (racemic) [Compound 195] | – | – | – | EC50 (Table 3 (amides), NRVM, 72 hours, alpha-MyHC cytoblot): 337 µM; Max Plateau (Table 3 (amides), NRVM, 72 hours, maximum of dose response fit): 126.67 ± 23.09 per cent fraction of low control
21 | Nc1c(C(=O)c2ccccc2)sc2c1C(c1ccccc1)C(C(=O)c1ccccc1)=C(c1ccccc1)N2 (stereo not drawn) [Compound 30] | – | 100.00 ± 0.00 per cent fraction of low control | – | –
22 | CCC(=O)C1=C(CC)Nc2sc(C(=O)c3ccccc3Cl)c(N)c2C1c1ccccc1 (stereo not drawn) [Compound 82] | – | 245.96 ± 30.73 per cent fraction of low control | – | EC50 [1]: 0.0148 µM
23 | CCC(=O)C1=C(CC)Nc2sc(C(=O)c3c(Cl)cccc3Cl)c(N)c2C1c1ccccc1F (stereo not drawn) [Compound 107] | – | 273.85 ± 29.06 per cent fraction of low control | – | EC50 [1]: 0.00167 µM
24 | CCC1=C(C(=O)OCCOC)C(c2ccnc(F)c2)c2c(sc(C(=O)c3cccc(Cl)c3)c2N)N1 (single isomer, unassigned) [Compound 191] | – | – | 263.67 ± 1.13 per cent fraction of low control | –

Further lines, with some results ahead:

Row | EC50 [3] [µM] | Structure (SMILES) | Max Plateau [2] | Max Plateau [4] | further results
25 | 0.012 | CCC1=C(C(=O)OC(C)CC)C(c2ccccc2F)c2c(sc(C(=O)c3cccc(C#N)c3)c2N)N1 (single isomer, unassigned) [Compound 165] | – | 250.83 per cent fraction of low control | –
26 | 0.303 | COC(=O)C1=C(CCc2ccccc2)Nc2sc(C(=O)c3ccc(Cl)c(Cl)c3)c(N)c2C1c1ccccc1F (stereo not drawn) [Compound 154] | – | 125.87 per cent fraction of low control | –
27 | 0.0143 | CCC1=C(C(=O)OC)C(c2c(F)cccc2F)c2c(sc(C(=O)c3cccc([N+](=O)[O-])c3)c2N)N1 (stereo not drawn) [Compound 141] | – | 261.69 per cent fraction of low control | –
28 | 0.0754 | CCC1=C(C(=O)OC2CCCCC2)C(c2ccccc2)c2c(sc(C(=O)c3ccc(Cl)c(Cl)c3)c2N)N1 (stereo not drawn) [Compound 160] | – | 186.95 per cent fraction of low control | –
29 | 0.00495 | CCOC(=O)C1=C(CC)Nc2sc(C(=O)c3ccc(Cl)c(Cl)c3)c(N)c2C1c1ccncc1Cl (stereo not drawn) [Compound 169] | – | 261.04 per cent fraction of low control | –
30 | 0.0632 | CCC1=C(C(=O)OCC(C)OC)C(c2ccccc2F)c2c(sc(C(=O)c3cccc(C#N)c3)c2N)N1 (stereo not drawn) [Compound 180] | – | 279.68 ± 65.32 per cent fraction of low control | –
31 | 0.0633 | COC(=O)C1=C(C2CC2)Nc2sc(C(=O)c3ccc(Cl)c(Cl)c3)c(N)c2C1c1ccccc1F (stereo not drawn) [Compound 144] | – | 187.17 per cent fraction of low control | –
32 | 0.000478 | CCC1=C(C(=O)OC)C(c2cc(F)cc(F)c2)c2c(sc(C(=O)c3ccccc3)c2N)N1 (stereo not drawn) [Compound 172] | – | 304.08 per cent fraction of low control | –
33 | 0.0214 | CCC1=C(C(=O)OC)C(c2ccccc2F)c2c(sc(C(=O)c3ccc(Cl)c(C)c3)c2N)N1 (stereo not drawn) [Compound 150] | – | 228.28 per cent fraction of low control | –
34 | 0.0354 | CCC1=C(C(=O)OCC(C)C)C(c2ccccc2)c2c(sc(C(=O)c3ccc(Cl)c(Cl)c3)c2N)N1 (stereo not drawn) [Compound 161] | – | 232.35 per cent fraction of low control | –
35 | 0.054 | C=CCOC(=O)C1=C(C)Nc2sc(C(=O)c3ccc(Cl)c(Cl)c3)c(N)c2C1c1ccccc1 (stereo not drawn) [Compound 127] | – | 195.71 ± 29.42 per cent fraction of low control | –
36 | 0.247 | CCOC(=O)C1=C(CC)Nc2sc(C(=O)c3ccc(F)c(CC(=O)OC)c3)c(N)c2C1c1ccccc1 (racemic) [Compound 194] | – | 188.67 per cent fraction of low control | –
37 | 0.000183 | CCC1=C(C(=O)OC)C(c2ccnc(F)c2)c2c(sc(C(=O)c3cccc(Cl)c3)c2N)N1 (racemic) [Compound 175] | – | 289.91 per cent fraction of low control | –
